From paper PMC2820364 (The Biochemical journal, 2008)

Experiments:
p110α (Q859D) = p110α (Q859D) (Homo sapiens, UniProt P42336, Q859D); test: PI3K lipid kinase inhibition assay, p110α Q859D mutant; type: biochemical; conditions: for Selectivity ratio α/β Gln↔Asp: IC50 ratio p110α-(Q859D) / p110β-(D862Q)
p110α (H855E) = p110α (H855E) (Homo sapiens, UniProt P42336, H855E); test: PI3K lipid kinase inhibition assay, p110α H855E mutant; type: biochemical; conditions: for Selectivity ratio α/β His↔Glu: IC50 ratio p110α-(H855E) / p110β-(E858H); for loss of potency at H857E-p110α relative to wild type: mutant printed as H857E
p110α WT = p110α WT (Homo sapiens, UniProt P42336); test: PI3K lipid kinase inhibition assay, wild-type p110α; type: biochemical; conditions: IC50 ratio p110α WT / p110β WT
p110β (D862Q) = p110β (D862Q) (Homo sapiens, UniProt P42338, D862Q); test: PI3K lipid kinase inhibition assay, p110β D862Q mutant; type: biochemical
p110β (E858H) = p110β (E858H) (Homo sapiens, UniProt P42338, E858H); test: PI3K lipid kinase inhibition assay, p110β E858H mutant; type: biochemical
p110β = conditions: read-out: IC50 against p110β; 10μM ATP; ref Knight et al. 2006; cited from earlier work
p110β WT = p110β WT (Homo sapiens, UniProt P42338); test: PI3K lipid kinase inhibition assay, wild-type p110β; type: biochemical; conditions: for selectivity for p110β relative to p110α (wild type): wild type enzymes
p110β WT, sequence (P42338 whole entry): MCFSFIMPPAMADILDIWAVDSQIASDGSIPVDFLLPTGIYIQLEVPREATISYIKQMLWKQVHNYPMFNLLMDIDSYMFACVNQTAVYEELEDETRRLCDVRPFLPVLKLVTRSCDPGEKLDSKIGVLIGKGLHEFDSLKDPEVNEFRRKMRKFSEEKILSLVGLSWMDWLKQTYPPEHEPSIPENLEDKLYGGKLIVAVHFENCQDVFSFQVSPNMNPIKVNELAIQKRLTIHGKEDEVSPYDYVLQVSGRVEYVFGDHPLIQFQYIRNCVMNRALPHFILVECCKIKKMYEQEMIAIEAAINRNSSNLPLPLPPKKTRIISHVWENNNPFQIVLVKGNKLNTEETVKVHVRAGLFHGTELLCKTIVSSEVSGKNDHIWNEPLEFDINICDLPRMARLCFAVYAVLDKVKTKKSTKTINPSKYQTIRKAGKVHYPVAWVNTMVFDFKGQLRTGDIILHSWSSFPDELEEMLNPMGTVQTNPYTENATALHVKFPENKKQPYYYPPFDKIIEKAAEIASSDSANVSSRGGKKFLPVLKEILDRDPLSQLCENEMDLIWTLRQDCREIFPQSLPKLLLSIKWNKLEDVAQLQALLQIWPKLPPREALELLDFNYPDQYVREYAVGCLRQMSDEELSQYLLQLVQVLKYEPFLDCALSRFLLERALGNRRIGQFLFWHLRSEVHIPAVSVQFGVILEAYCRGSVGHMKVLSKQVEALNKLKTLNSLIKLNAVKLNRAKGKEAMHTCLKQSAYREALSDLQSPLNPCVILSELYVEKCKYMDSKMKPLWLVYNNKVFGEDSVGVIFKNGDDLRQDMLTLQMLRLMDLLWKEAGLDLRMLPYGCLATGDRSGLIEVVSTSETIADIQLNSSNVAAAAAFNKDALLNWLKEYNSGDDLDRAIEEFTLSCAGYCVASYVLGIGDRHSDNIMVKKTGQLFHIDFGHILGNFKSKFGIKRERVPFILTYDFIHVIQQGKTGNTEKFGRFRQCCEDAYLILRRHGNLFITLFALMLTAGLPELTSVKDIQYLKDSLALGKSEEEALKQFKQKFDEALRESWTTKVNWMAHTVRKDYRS
p110β WT, sequence (P27986 whole entry partner): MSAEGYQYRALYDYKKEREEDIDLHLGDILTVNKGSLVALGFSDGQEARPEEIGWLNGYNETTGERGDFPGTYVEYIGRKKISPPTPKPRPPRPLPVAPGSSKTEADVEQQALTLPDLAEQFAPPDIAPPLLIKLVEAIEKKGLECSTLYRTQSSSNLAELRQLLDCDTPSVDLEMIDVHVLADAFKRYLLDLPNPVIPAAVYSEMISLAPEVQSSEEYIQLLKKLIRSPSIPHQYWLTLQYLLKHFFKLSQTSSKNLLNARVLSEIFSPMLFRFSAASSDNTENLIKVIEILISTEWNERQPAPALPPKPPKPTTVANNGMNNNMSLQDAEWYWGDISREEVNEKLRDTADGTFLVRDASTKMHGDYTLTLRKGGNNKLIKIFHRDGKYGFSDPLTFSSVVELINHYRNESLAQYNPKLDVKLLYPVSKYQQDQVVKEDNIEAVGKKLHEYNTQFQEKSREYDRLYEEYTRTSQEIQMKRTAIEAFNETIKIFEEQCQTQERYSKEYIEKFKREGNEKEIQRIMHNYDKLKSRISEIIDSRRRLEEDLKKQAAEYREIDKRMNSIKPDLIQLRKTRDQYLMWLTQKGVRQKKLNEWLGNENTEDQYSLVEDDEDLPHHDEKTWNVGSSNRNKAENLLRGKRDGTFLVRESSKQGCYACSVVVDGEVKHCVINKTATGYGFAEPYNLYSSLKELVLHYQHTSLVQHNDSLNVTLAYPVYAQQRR

p110β (D862Q), sequence (P42338 whole entry D862Q, species assumed): as the sequence (P42338 whole entry) above, with D862Q counted along it
p110β (D862Q), sequence (P27986 whole entry partner, species assumed): as the sequence (P27986 whole entry partner) above
p110α (Q859D), sequence (P42336 whole entry Q859D, species assumed): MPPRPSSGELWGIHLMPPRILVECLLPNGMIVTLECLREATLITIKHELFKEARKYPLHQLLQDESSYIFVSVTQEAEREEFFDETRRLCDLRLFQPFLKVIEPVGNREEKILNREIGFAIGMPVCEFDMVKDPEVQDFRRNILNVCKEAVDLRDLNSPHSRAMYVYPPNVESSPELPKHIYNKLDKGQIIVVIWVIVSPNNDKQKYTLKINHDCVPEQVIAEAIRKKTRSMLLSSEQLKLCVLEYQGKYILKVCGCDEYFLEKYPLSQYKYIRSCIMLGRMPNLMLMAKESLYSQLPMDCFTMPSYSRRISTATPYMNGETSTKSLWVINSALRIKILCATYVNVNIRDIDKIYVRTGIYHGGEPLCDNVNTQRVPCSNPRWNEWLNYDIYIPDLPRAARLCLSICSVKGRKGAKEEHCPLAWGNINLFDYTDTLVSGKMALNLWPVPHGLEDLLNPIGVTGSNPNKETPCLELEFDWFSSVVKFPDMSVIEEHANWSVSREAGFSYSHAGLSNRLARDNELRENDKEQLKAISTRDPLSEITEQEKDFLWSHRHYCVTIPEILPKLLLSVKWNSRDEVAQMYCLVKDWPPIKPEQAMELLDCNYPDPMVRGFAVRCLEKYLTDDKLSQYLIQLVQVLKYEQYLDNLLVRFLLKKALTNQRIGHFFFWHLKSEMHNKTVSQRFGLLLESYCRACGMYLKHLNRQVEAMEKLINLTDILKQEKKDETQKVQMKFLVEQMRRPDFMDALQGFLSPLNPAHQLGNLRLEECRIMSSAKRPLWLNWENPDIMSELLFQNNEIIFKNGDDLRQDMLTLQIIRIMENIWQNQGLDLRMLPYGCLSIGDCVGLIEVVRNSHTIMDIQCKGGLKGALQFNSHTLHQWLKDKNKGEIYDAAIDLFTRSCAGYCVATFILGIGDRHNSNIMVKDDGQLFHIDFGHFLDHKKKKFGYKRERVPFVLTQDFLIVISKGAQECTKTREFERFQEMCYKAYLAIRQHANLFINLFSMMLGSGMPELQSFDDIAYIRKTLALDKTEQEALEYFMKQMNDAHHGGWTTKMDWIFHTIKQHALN
p110α (Q859D), sequence (P27986 whole entry partner, species assumed): as the sequence (P27986 whole entry partner) above
p110α (H855E), sequence (P42336 whole entry H855E, species assumed): as the sequence (P42336 whole entry Q859D, species assumed) above, with H855E, D859Q counted along it
p110α (H855E), sequence (P27986 whole entry partner, species assumed): as the sequence (P27986 whole entry partner) above
p110α WT, sequence (P42336 whole entry): as the sequence (P42336 whole entry Q859D, species assumed) above, with D859Q counted along it
p110α WT, sequence (P27986 whole entry partner): as the sequence (P27986 whole entry partner) above
p110β (E858H), sequence (P42338 whole entry E858H, species assumed): as the sequence (P42338 whole entry) above, with E858H counted along it
p110β (E858H), sequence (P27986 whole entry partner, species assumed): as the sequence (P27986 whole entry partner) above

| Compound | Selectivity ratio α/β Gln↔Asp (p110α (Q859D)) | Selectivity ratio α/β His↔Glu (p110α (H855E)) | Selectivity ratio α/β (wt) (p110α WT) | reduction in potency at p110β-D862Q relative to wild type (p110β (D862Q)) | reduction in potency at p110β-E858H relative to wild type (p110β (E858H)) | IC50 (p110β) [nM] | difference between literature IC50 and IC50 of this study at p110β (p110β WT; 0.12μM (Knight et al. 2006) v. 7nM) [fold] | selectivity for p110β relative to p110α (wild type) (p110β WT) | loss of potency at Q859D-p110α relative to wild type (p110α (Q859D)) | loss of potency at H857E-p110α relative to wild type (p110α (H855E)) | effect of p110β D862Q mutation on inhibition (in words) (p110β (D862Q); compared with wild type p110β) | effect of p110β E858H mutation on inhibition (in words) (p110β (E858H); compared with wild type p110β) | increase in potency at p110β-D862Q relative to wild type (p110β (D862Q)) | increase in potency at p110β-E858H relative to wild type (p110β (E858H)) |
| --- | --- | --- | --- | --- | --- | --- | --- | --- | --- | --- | --- | --- | --- | --- |
| TGX286 | 126.2 | 106.4 | 142.0 | approximately 2 fold | approximately 2 fold | 120 | 17 | over 140 fold |  |  |  |  |  |  |
| O=c1cc(N2CCOCC2)oc2c(OCc3ccccc3)cccc12 [TGX102] | 12.65 | 17.3 | 4.30 |  |  |  |  | approximately 4 fold | 3 fold | 3 fold | indistinguishable from the wild type | indistinguishable from the wild type |  |  |
| O=c1cc(N2CCOCC2)oc2c(OCc3cccnc3)cccc12 [TGX132] | 4.59 | 3.56 | 0.34 |  |  |  |  |  | 5-6 fold | 5-6 fold |  |  | approximately 2 fold | approximately 2 fold |
